Results: DBAASP
Converted amounts (≈) assume the structure as drawn. “And” between values parts separate entries of the source, which are not always exact repeats. Equal values may be shown once.

Legend:
Assay in all cases: ≥ marks a high value that may be exact or a test limit, other limits are often not marked, values filed in µg/mL are converted to µM
[1] = tested on: Acinetobacter baumannii 4-MRGN
[2] = tested on: Pseudomonas aeruginosa ATCC 27853
Enterococcus faecalis VR = tested on: Enterococcus faecalis VR
Enterococcus faecalis = tested on: Enterococcus faecalis
[3] = tested on: Escherichia coli ATCC 25922
[4] = tested on: Escherichia coli ATCC BAA-2523
Pseudomonas aeruginosa = tested on: Pseudomonas aeruginosa
[5] = tested on: Staphylococcus aureus ATCC 29213
[6] = tested on: Staphylococcus aureus ATCC 43300
[7] = tested on: Acinetobacter baumannii ATCC 19606
Candida albicans = tested on: Candida albicans
[8] = tested on: Corynebacterium jeikeium ATCC BAA-949
[9] = tested on: Pseudomonas aeruginosa AA43
[10] = tested on: Pseudomonas aeruginosa ATCC 19660
[11] = tested on: Pseudomonas aeruginosa ME
[12] = tested on: Pseudomonas aeruginosa PAO1
[13] = tested on: Pseudomonas aeruginosa R1
[14] = tested on: Staphylococcus aureus ATCC 25923
Staphylococcus aureus = tested on: Staphylococcus aureus
[15] = tested on: Staphylococcus epidermidis ATCC 12228
[16] = tested on: Staphylococcus epidermidis
Staphylococcus hominis = tested on: Staphylococcus hominis
[17] = tested on: Bacillus subtilis KCTC 3068
[18] = tested on: Escherichia coli DSM 1103
[19] = tested on: Escherichia coli KCTC 1682
[20] = tested on: Pseudomonas aeruginosa CCARM 2092
[21] = tested on: Pseudomonas aeruginosa CCARM 2095
[22] = tested on: Pseudomonas aeruginosa CCARM 2109
[23] = tested on: Pseudomonas aeruginosa DSM 1117
[24] = tested on: Pseudomonas aeruginosa KCTC 1637
[25] = tested on: Salmonella typhimurium KCTC 1926
[26] = tested on: Staphylococcus aureus CCARM 3001
[27] = tested on: Staphylococcus aureus CCARM 3089
[28] = tested on: Staphylococcus aureus CCARM 3543
[29] = tested on: Staphylococcus aureus DSM 1104
[30] = tested on: Staphylococcus aureus KCTC 1621
[31] = tested on: Staphylococcus epidermidis DSM 1798
[32] = tested on: Staphylococcus epidermidis KCTC 1917
Acinetobacter baumannii = tested on: Acinetobacter baumannii
Escherichia coli K88 = tested on: Escherichia coli K88
Escherichia coli K99 = tested on: Escherichia coli K99
Escherichia coli UB1005 = tested on: Escherichia coli UB1005
Escherichia coli = tested on: Escherichia coli
Klebsiella pneumoniae = tested on: Klebsiella pneumoniae
[33] = tested on: Pseudomonas aeruginosa CICC 21625
[34] = tested on: Pseudomonas aeruginosa CICC 21630
[35] = tested on: Salmonella enterica subsp. enterica serovar Pullorum C79-13
[36] = tested on: Salmonella enterica subsp. enterica serovar Typhimurium ATCC 14028
[37] = tested on: Salmonella enterica subsp. enterica serovar Typhimurium C77-31

C[C@H](N)C(=O)N[C@H](C(=O)N[C@@H](CS)C(=O)N[C@@H](Cc1ccc(O)cc1)C(=O)N[C@H]1CSSC[C@@H](C(=O)N[C@@H](C)C(=O)N[C@H](C(=O)N[C@@H](CCCN=C(N)N)C(=O)O)[C@@H](C)O)NC(=O)[C@H](CCCN=C(N)N)NC(=O)CNC(=O)[C@H]([C@@H](C)O)NC(=O)[C@H](CCCN=C(N)N)NC1=O)[C@@H](C)O [ATCYCRTGRCATR]
MIC [1]: ≥ 99.9 µM
MIC [2]: > 99.9 µM

CC(C)C[C@H](NC(=O)[C@@H](N)CCC(N)=O)C(=O)NCC(=O)N[C@@H](CCCN=C(N)N)C(=O)N[C@@H](CCCN=C(N)N)C(=O)N[C@@H](CCCN=C(N)N)C(=O)N[C@@H](Cc1cnc[nH]1)C(=O)N[C@@H](CCCN=C(N)N)C(=O)N[C@@H](CCCN=C(N)N)C(=O)N[C@@H](CCCN=C(N)N)C(=O)N1CCC[C@H]1C(=O)N[C@@H](CO)C(=O)N[C@@H](CCCN=C(N)N)C(=O)N[C@@H](CCCN=C(N)N)C(=O)N[C@@H](CCCN=C(N)N)C(=O)N[C@@H](CCCN=C(N)N)C(=O)N[C@@H](Cc1cnc[nH]1)C(=O)N[C@@H](Cc1c[nH]c2ccccc12)C(=O)O [QLGRRRHRRRPSRRRRHW]
MIC (Enterococcus faecalis VR): 16 µM (≈ 40.4 µg/mL)
MIC (Enterococcus faecalis): ≥ 32 µM
MIC [3]: 64 µM (≈ 161 µg/mL)
MIC [4]: ≥ 128 µM
MIC [2]: > 128 µM
MIC (Pseudomonas aeruginosa): 128 µM (≈ 323 µg/mL)
MIC [5]: 32 µM (≈ 80.7 µg/mL)
MIC [6]: 16 µM (≈ 40.4 µg/mL)

CC[C@H](C)[C@H](NC(=O)CN)C(=O)N[C@@H](Cc1ccccc1)C(=O)N[C@@H](CO)C(=O)N[C@@H](CCCCN)C(=O)N[C@@H](CC(C)C)C(=O)N[C@@H](C)C(=O)NCC(=O)N[C@@H](CCCCN)C(=O)N[C@@H](CCCCN)C(=O)N[C@H](C(=O)N[C@@H](CCCCN)C(=O)N[C@@H](CC(N)=O)C(=O)N[C@@H](CC(C)C)C(=O)N[C@@H](CC(C)C)C(=O)N[C@H](C(=O)N[C@@H](CO)C(=O)NCC(=O)N[C@@H](CC(C)C)C(=O)N[C@@H](CCCCN)C(=O)NCC(N)=O)[C@@H](C)CC)[C@@H](C)CC [GIFSKLAGKKIKNLLISGLKG]
MIC [7]: 1.56 µM (≈ 3.41 µg/mL)
MIC (Candida albicans): 2.83 µM (≈ 6.18 µg/mL)
MIC [8]: 0.125 µM (≈ 0.273 µg/mL)
MIC [3]: 1.56 µM (≈ 3.41 µg/mL)
MIC [9]: 4.03 µM (≈ 8.8 µg/mL)
MIC [10]: 16 µM (≈ 35 µg/mL)
MIC [2]: 4 µM and 3.12 µM
MIC [11]: 8 µM (≈ 17.5 µg/mL)
MIC [12]: 4 µM and > 2.01 µM
MIC [13]: 2 µM (≈ 4.37 µg/mL)
MIC (Pseudomonas aeruginosa): 4 µM (≈ 8.74 µg/mL)
MIC [14]: > 100 µM
MIC (Staphylococcus aureus): 64 µM and 100 µM
MIC [15]: 3.12 µM (≈ 6.82 µg/mL)
MIC [16]: 8 µM (≈ 17.5 µg/mL)
MIC (Staphylococcus hominis): 1 µM (≈ 2.18 µg/mL)

CC(C)[C@H](NC(=O)[C@H](CCCCN)NC(=O)[C@H](CCCN=C(N)N)NC(=O)[C@H](CCCCN)NC(=O)[C@H](CCCCN)NC(=O)[C@H](CCCCN)NC(=O)[C@@H]1CCCN1C(=O)[C@H](CCC(N)=O)NC(=O)[C@H](CO)NC(=O)[C@H](Cc1c[nH]c2ccccc12)NC(=O)[C@H](CCC(=O)O)NC(=O)[C@@H](NC(=O)[C@H](Cc1c[nH]c2ccccc12)NC(=O)[C@H](Cc1c[nH]c2ccccc12)NC(=O)[C@@H](NC(=O)[C@H](CCC(=O)O)NC(=O)[C@H](Cc1c[nH]c2ccccc12)NC(=O)[C@H](Cc1c[nH]c2ccccc12)NC(=O)[C@@H](NC(=O)[C@H](CCC(=O)O)NC(=O)[C@@H](N)CCCCN)[C@@H](C)O)[C@@H](C)O)[C@@H](C)O)C(=O)O [KETWWETWWTEWSQPKKKRKV]
MIC [17]: 8 µM (≈ 22.8 µg/mL)
MIC [18]: ≥ 87 µM
MIC [19]: ≥ 32 µM
MIC [20]: ≥ 32 µM
MIC [21]: ≥ 64 µM
MIC [22]: ≥ 32 µM
MIC [23]: ≥ 87 µM
MIC [24]: ≥ 64 µM
MIC [25]: ≥ 64 µM
MIC [26]: ≥ 64 µM
MIC [27]: ≥ 64 µM
MIC [28]: ≥ 64 µM
MIC [29]: ≥ 87 µM
MIC [30]: ≥ 64 µM
MIC [31]: ≥ 87 µM
MIC [32]: ≥ 64 µM

CC(C)[C@H](N)C(=O)N[C@@H](CCCCN)C(=O)N1CCC[C@H]1C(=O)N[C@H](C(=O)N[C@H](C(=O)N[C@@H](CCCCN)C(=O)N1CCC[C@H]1C(=O)N[C@H](C(=O)N[C@H](C(=O)N[C@@H](CCCCN)C(=O)N1CCC[C@H]1C(=O)N[C@H](C(=O)N[C@H](C(=O)N[C@@H](CCCCN)C(=O)N1CCC[C@H]1C(=O)N[C@H](C(=O)N[C@H](C(=O)N[C@@H](CCCCN)C(=O)N1CCC[C@H]1C(=O)N[C@H](C(=O)N[C@H](C(=O)N[C@@H](CCCCN)C(=O)N1CCC[C@H]1C(=O)N[C@H](C(N)=O)C(C)C)C(C)C)C(C)C)C(C)C)C(C)C)C(C)C)C(C)C)C(C)C)C(C)C)C(C)C)C(C)C [VKPVVKPVVKPVVKPVVKPVVKPV]
MIC (Acinetobacter baumannii): ≥ 64 µM
MIC [3]: > 64 µM
MIC (Escherichia coli K88): ≥ 64 µM
MIC (Escherichia coli K99): ≥ 64 µM
MIC (Escherichia coli UB1005): ≥ 64 µM
MIC (Escherichia coli): > 64 µM
MIC (Klebsiella pneumoniae): > 64 µM
MIC [2]: > 64 µM
MIC [33]: ≥ 64 µM
MIC [34]: ≥ 64 µM
MIC [12]: > 64 µM
MIC (Pseudomonas aeruginosa): > 64 µM
MIC [35]: ≥ 64 µM
MIC [36]: > 64 µM
MIC [37]: ≥ 64 µM
